Publication PMC5218480 (PLoS ONE, 2017)

System: MV-4-11 cells
Assay: Gene expression microarray analysis (Affymetrix PrimeView) and GSEA
Type: cell-based, human
Set-up: RFU PODN (11730768_x_at) / Fold change /veh PODN (11730768_x_at) / RFU LINC00158 (11744669_a_at) / Fold change /veh LINC00158 (11744669_a_at) / RFU DUSP10 (11751237_a_at) / Fold change /veh DUSP10 (11751237_a_at) / RFU ID3 (11757404_x_at) / Fold change /veh ID3 (11757404_x_at) / RFU PLEKHG5 (11737974_s_at) / Fold change /veh PLEKHG5 (11737974_s_at) / RFU LRRC4B (11730491_at) / Fold change /veh LRRC4B (11730491_at) / RFU GIMAP4 (11747438_a_at) / Fold change /veh GIMAP4 (11747438_a_at) / RFU KRT8 (11758183_x_at) / Fold change /veh KRT8 (11758183_x_at) / RFU CNN1 (11734310_a_at) / Fold change /veh CNN1 (11734310_a_at) / RFU VPS37D (11726825_at) / Fold change /veh VPS37D (11726825_at) / RFU C10orf10 (11716522_x_at) / Fold change /veh C10orf10 (11716522_x_at) / RFU KIR2DL2 /// KIR2DL4 /// KIR2DL5A /// KIR2DL5B /// KIR2DS1 /// KIR2DS2 /// KIR2DS3 /// KIR2DS4 /// KIR3DL3 /// KIR3DL3 /// KIR3DS1 (11738374_at) / Fold change /veh KIR2DL2 /// KIR2DL4 /// KIR2DL5A /// KIR2DL5B /// KIR2DS1 /// KIR2DS2 /// KIR2DS3 /// KIR2DS4 /// KIR3DL3 /// KIR3DL3 /// KIR3DS1 (11738374_at) / RFU C1QL1 (11718748_at) / Fold change /veh C1QL1 (11718748_at) / RFU TMPRSS4 (11747572_a_at) / Fold change /veh TMPRSS4 (11747572_a_at) / RFU HAMP (11756126_x_at) / Fold change /veh HAMP (11756126_x_at) / RFU RNFT2 (11725882_a_at) / Fold change /veh RNFT2 (11725882_a_at) / RFU NR4A2 (11747474_a_at) / Fold change /veh NR4A2 (11747474_a_at) / RFU ABCC12 (11746883_a_at) / Fold change /veh ABCC12 (11746883_a_at) / RFU TMEM136 (11760407_x_at) / Fold change /veh TMEM136 (11760407_x_at) / RFU CLDN22 /// WWC2 (11732394_at) / Fold change /veh CLDN22 /// WWC2 (11732394_at) / RFU HLA-DPB1 (11760878_x_at) / Fold change /veh HLA-DPB1 (11760878_x_at) / RFU SPINT1 (11716480_a_at) / Fold change /veh SPINT1 (11716480_a_at) / RFU GAP43 (11754022_s_at) / Fold change /veh GAP43 (11754022_s_at) / RFU A4GNT (11735810_at) / Fold change /veh A4GNT (11735810_at) / RFU PRB3 (11715151_x_at) / Fold change /veh PRB3 (11715151_x_at) / RFU TUBB4B (11761932_at) / Fold change /veh TUBB4B (11761932_at) / RFU CAPN14 (11732068_a_at) / Fold change /veh CAPN14 (11732068_a_at) / RFU TMCC2 (11721928_a_at) / Fold change /veh TMCC2 (11721928_a_at) / RFU IRGQ (11745062_a_at) / Fold change /veh IRGQ (11745062_a_at) / RFU FAM174B (11720279_a_at) / Fold change /veh FAM174B (11720279_a_at) / RFU TMPRSS4 (11748680_a_at) / Fold change /veh TMPRSS4 (11748680_a_at) / RFU FAM212B (11763350_a_at) / Fold change /veh FAM212B (11763350_a_at) / RFU PLEKHG5 (11743358_a_at) / Fold change /veh PLEKHG5 (11743358_a_at) / RFU ZSCAN30 (11745921_a_at) / Fold change /veh ZSCAN30 (11745921_a_at) / RFU CMKLR1 (11741424_a_at) / Fold change /veh CMKLR1 (11741424_a_at) / RFU LOC101060620 /// MAPK8IP1 (11723275_at) / Fold change /veh LOC101060620 /// MAPK8IP1 (11723275_at) / RFU SPTSSB (11747773_x_at) / Fold change /veh SPTSSB (11747773_x_at) / RFU PRSS12 (11739890_at) / Fold change /veh PRSS12 (11739890_at) / RFU BIN1 (11741810_x_at) / Fold change /veh BIN1 (11741810_x_at) / RFU WNT11 (11732464_a_at) / Fold change /veh WNT11 (11732464_a_at) / RFU C10orf10 (11716521_a_at) / Fold change /veh C10orf10 (11716521_a_at) / RFU C5orf56 (11738089_at) / Fold change /veh C5orf56 (11738089_at) / RFU CYB561 (11721691_x_at) / Fold change /veh CYB561 (11721691_x_at) / RFU ANKRD19P (11752326_a_at) / Fold change /veh ANKRD19P (11752326_a_at) / RFU OR2T12 /// OR2T33 /// OR2T8 (11738714_s_at) / Fold change /veh OR2T12 /// OR2T33 /// OR2T8 (11738714_s_at) / RFU VCAN (11748164_a_at) / Fold change /veh VCAN (11748164_a_at) / RFU JSRP1 (11732532_at) / Fold change /veh JSRP1 (11732532_at) / RFU KRTAP10-11 (11738290_x_at) / Fold change /veh KRTAP10-11 (11738290_x_at) / RFU MYO3A (11730013_a_at) / Fold change /veh MYO3A (11730013_a_at) / RFU EBF3 (11725865_a_at) / Fold change /veh EBF3 (11725865_a_at) / RFU CAMK2N1 (11719241_x_at) / Fold change /veh CAMK2N1 (11719241_x_at) / RFU C5orf56 (11738088_a_at) / Fold change /veh C5orf56 (11738088_a_at) / RFU OLFML3 (11715873_a_at) / Fold change /veh OLFML3 (11715873_a_at) / RFU LOC100653217 /// NTM (11731650_a_at) / Fold change /veh LOC100653217 /// NTM (11731650_a_at) / RFU MAPK11 (11762145_a_at) / Fold change /veh MAPK11 (11762145_a_at) / RFU FIZ1 (11724087_x_at) / Fold change /veh FIZ1 (11724087_x_at) / RFU OASL (11726364_x_at) / Fold change /veh OASL (11726364_x_at) / RFU SOX15 (11748057_x_at) / Fold change /veh SOX15 (11748057_x_at) / RFU CD79A (11719716_a_at) / Fold change /veh CD79A (11719716_a_at) / RFU HIST1H1D (11736915_at) / Fold change /veh HIST1H1D (11736915_at) / RFU CASKIN2 (11723855_a_at) / Fold change /veh CASKIN2 (11723855_a_at) / RFU LOC730098 (11760151_x_at) / Fold change /veh LOC730098 (11760151_x_at) / RFU OR4N2 (11742367_at) / Fold change /veh OR4N2 (11742367_at) / RFU PRRT2 (11749266_a_at) / Fold change /veh PRRT2 (11749266_a_at) / RFU SNX32 (11753110_a_at) / Fold change /veh SNX32 (11753110_a_at) / RFU CDHR5 (11726645_a_at) / Fold change /veh CDHR5 (11726645_a_at) / RFU RCAN1 (11760418_a_at) / Fold change /veh RCAN1 (11760418_a_at) / RFU FAM167A (11723789_a_at) / Fold change /veh FAM167A (11723789_a_at) / RFU FAM26E (11764081_at) / Fold change /veh FAM26E (11764081_at) / RFU ISYNA1 (11749810_s_at) / Fold change /veh ISYNA1 (11749810_s_at) / RFU ACY1 (11761880_at) / Fold change /veh ACY1 (11761880_at) / RFU 11764098_at / Fold change /veh 11764098_at / RFU SAMD14 (11745864_x_at) / Fold change /veh SAMD14 (11745864_x_at) / RFU NPB (11741838_a_at) / Fold change /veh NPB (11741838_a_at) / RFU TMPRSS6 (11731388_a_at) / Fold change /veh TMPRSS6 (11731388_a_at) / RFU KRTAP10-2 (11738614_at) / Fold change /veh KRTAP10-2 (11738614_at) / RFU ARHGAP8 /// PRR5-ARHGAP8 (11727945_x_at) / Fold change /veh ARHGAP8 /// PRR5-ARHGAP8 (11727945_x_at) / RFU KRTAP5-7 /// NADSYN1 (11734609_at) / Fold change /veh KRTAP5-7 /// NADSYN1 (11734609_at) / RFU RASL12 (11751679_a_at) / Fold change /veh RASL12 (11751679_a_at) / RFU CDKN2B (11736163_a_at) / Fold change /veh CDKN2B (11736163_a_at) / RFU PRF1 (11729649_at) / Fold change /veh PRF1 (11729649_at) / RFU, ZNF638 /// ZNF638-IT1 / Fold change vs veh, ZNF638 /// ZNF638-IT1 / RFU, PANK3 / Fold change vs veh, PANK3 / RFU, SH3YL1 / Fold change vs veh, SH3YL1 / RFU, ZEB2 / Fold change vs veh, ZEB2 / RFU, NRIP1 / Fold change vs veh, NRIP1 / RFU, PTTG1IP / Fold change vs veh, PTTG1IP / RFU, CAPN2 / Fold change vs veh, CAPN2 / RFU, MED14 / Fold change vs veh, MED14 / RFU, SNORA58 / Fold change vs veh, SNORA58 / RFU, C1orf63 / Fold change vs veh, C1orf63 / RFU, LRRFIP1 / Fold change vs veh, LRRFIP1 / RFU, NDUFAF7 / Fold change vs veh, NDUFAF7 / RFU, SLC12A2 / Fold change vs veh, SLC12A2 / RFU, IBTK / Fold change vs veh, IBTK / RFU, ESF1 / Fold change vs veh, ESF1 / Fold change vs veh, TMEM50B / RFU, TAOK1 / Fold change vs veh, TAOK1 / RFU, ACBD3 / Fold change vs veh, ACBD3 / RFU, TMA16 / Fold change vs veh, TMA16 / RFU, RWDD3 / Fold change vs veh, RWDD3 / RFU, BCAT1 / Fold change vs veh, BCAT1 / RFU, EDEM3 / Fold change vs veh, EDEM3 / RFU, TMEM33 / Fold change vs veh, TMEM33 / RFU, WDR75 / Fold change vs veh, WDR75 / RFU, AHCTF1 / Fold change vs veh, AHCTF1 / RFU, TFRC / Fold change vs veh, TFRC / RFU, ZDHHC17 / Fold change vs veh, ZDHHC17 / RFU, NOM1 / Fold change vs veh, NOM1 / RFU, ARL8B / Fold change vs veh, ARL8B / RFU, ZBTB11 / Fold change vs veh, ZBTB11 / RFU, TAMM41 / Fold change vs veh, TAMM41 / RFU, KIAA1704 /// LOC100996395 / Fold change vs veh, KIAA1704 /// LOC100996395 / RFU, ING1 / Fold change vs veh, ING1 / RFU, TRMT61B / Fold change vs veh, TRMT61B / RFU, FUBP3 / Fold change vs veh, FUBP3 / RFU, TP53 / Fold change vs veh, TP53 / RFU, TNKS2 / Fold change vs veh, TNKS2 / RFU, ZFP14 / Fold change vs veh, ZFP14 / RFU, ACTR2 / Fold change vs veh, ACTR2 / RFU, PPP3R1 / Fold change vs veh, PPP3R1 / RFU, PIK3R1 / Fold change vs veh, PIK3R1 / RFU, HNRNPA1 / Fold change vs veh, HNRNPA1 / RFU, RNF170 / Fold change vs veh, RNF170 / RFU, ZNF28 / Fold change vs veh, ZNF28 / RFU, RNGTT / Fold change vs veh, RNGTT / RFU, OGT / Fold change vs veh, OGT / RFU, BRD1 / Fold change vs veh, BRD1 / RFU, MARS / Fold change vs veh, MARS / RFU, ZNF655 / Fold change vs veh, ZNF655 / RFU, FAHD1 / Fold change vs veh, FAHD1 / RFU, BDP1 / Fold change vs veh, BDP1 / RFU, LRRCC1 / Fold change vs veh, LRRCC1 / RFU, ARID1A / Fold change vs veh, ARID1A / RFU, ZNF146 / Fold change vs veh, ZNF146 / RFU, ZNF330 / Fold change vs veh, ZNF330 / RFU, GPN3 / Fold change vs veh, GPN3 / RFU, C9orf123 / Fold change vs veh, C9orf123 / RFU, N4BP2L2 / Fold change vs veh, N4BP2L2 / RFU, ARFIP1 / Fold change vs veh, ARFIP1 / RFU, FAM179B / Fold change vs veh, FAM179B / RFU, BCL10 / Fold change vs veh, BCL10 / RFU, UHRF1BP1L / Fold change vs veh, UHRF1BP1L / RFU, BET1 / Fold change vs veh, BET1 / RFU, CNOT2 / Fold change vs veh, CNOT2 / RFU, ZNF268 / Fold change vs veh, ZNF268 / Fold change vs veh, ZNF507 / RFU, DGCR2 / Fold change vs veh, DGCR2 / RFU, WDSUB1 / Fold change vs veh, WDSUB1 / Fold change vs veh, HSP90B1 /// MIR3652 / RFU, ADSS / Fold change vs veh, ADSS / RFU, GK / Fold change vs veh, GK / RFU, ZNF148 / Fold change vs veh, ZNF148 / RFU, TAF9 / Fold change vs veh, TAF9 / RFU, SLC1A5 / Fold change vs veh, SLC1A5 / RFU, SLMO2 / Fold change vs veh, SLMO2 / RFU, ABCC4 / Fold change vs veh, ABCC4 / RFU, LOC101060439 /// RAP1B / Fold change vs veh, LOC101060439 /// RAP1B / RFU, RFX7 / Fold change vs veh, RFX7 / RFU, GTPBP10 / Fold change vs veh, GTPBP10 / RFU, CNEP1R1 / Fold change vs veh, CNEP1R1 / RFU, BIVM-ERCC5 /// ERCC5 / Fold change vs veh, BIVM-ERCC5 /// ERCC5 / RFU, ILF3 / Fold change vs veh, ILF3 / RFU 11762660_at / Fold change /veh 11762660_at / RFU VCAN (11757783_s_at) / Fold change /veh VCAN (11757783_s_at) / RFU DDX43 (11728927_at) / Fold change /veh DDX43 (11728927_at) / RFU KRT8 (11758188_x_at) / Fold change /veh KRT8 (11758188_x_at) / RFU NKD1 (11759106_at) / Fold change /veh NKD1 (11759106_at) / RFU SRD5A1 (11742802_a_at) / Fold change /veh SRD5A1 (11742802_a_at) / RFU TPSAB1 /// TPSB2 (11721975_s_at) / Fold change /veh TPSAB1 /// TPSB2 (11721975_s_at) / RFU GSTM3 (11746129_a_at) / Fold change /veh GSTM3 (11746129_a_at) / RFU IL23R (11737362_x_at) / Fold change /veh IL23R (11737362_x_at) / RFU TMEM51 (11727254_a_at) / Fold change /veh TMEM51 (11727254_a_at) / RFU PIWIL2 (11732686_x_at) / Fold change /veh PIWIL2 (11732686_x_at) / RFU ORM1 (11744905_x_at) / Fold change /veh ORM1 (11744905_x_at) / RFU CCDC152 (11743942_at) / Fold change /veh CCDC152 (11743942_at) / RFU ECM1 (11717891_a_at) / Fold change /veh ECM1 (11717891_a_at) / RFU IL23R (11748794_a_at) / Fold change /veh IL23R (11748794_a_at) / RFU TNFAIP8L3 (11732012_x_at) / Fold change /veh TNFAIP8L3 (11732012_x_at) / RFU MBOAT4 (11741988_at) / Fold change /veh MBOAT4 (11741988_at) / RFU 11764193_at / Fold change /veh 11764193_at / RFU TMEM53 (11763286_at) / Fold change /veh TMEM53 (11763286_at) / RFU MAGEB2 (11727129_at) / Fold change /veh MAGEB2 (11727129_at) / RFU TMEM200A (11744735_a_at) / Fold change /veh TMEM200A (11744735_a_at) / RFU CCDC152 (11751479_a_at) / Fold change /veh CCDC152 (11751479_a_at) / RFU FAM211A (11726209_a_at) / Fold change /veh FAM211A (11726209_a_at) / RFU RGS16 (11746705_a_at) / Fold change /veh RGS16 (11746705_a_at) / RFU VCAN (11755009_s_at) / Fold change /veh VCAN (11755009_s_at) / RFU RHOB (11743442_s_at) / Fold change /veh RHOB (11743442_s_at) / RFU RGS16 (11720943_a_at) / Fold change /veh RGS16 (11720943_a_at) / RFU RGS16 (11720944_at) / Fold change /veh RGS16 (11720944_at) / RFU, VPS4B / Fold change vs veh, VPS4B / RFU, CREB1 / Fold change vs veh, CREB1 / RFU, DNAJC13 / Fold change vs veh, DNAJC13 / RFU, GNAQ / Fold change vs veh, GNAQ / RFU, CDK5R1 / Fold change vs veh, CDK5R1 / RFU, ZRANB3 / Fold change vs veh, ZRANB3 / RFU, CUL4A / Fold change vs veh, CUL4A / RFU, CCNY / Fold change vs veh, CCNY / RFU, UFL1 / Fold change vs veh, UFL1 / RFU, COG3 / Fold change vs veh, COG3 / RFU, DIAPH2 / Fold change vs veh, DIAPH2 / RFU, SKA2 / Fold change vs veh, SKA2 / RFU, AFF3 / Fold change vs veh, AFF3 / RFU, LMF1 / Fold change vs veh, LMF1 / RFU, IPO11 / Fold change vs veh, IPO11 / RFU, DFFB / Fold change vs veh, DFFB / RFU, FOXP1 / Fold change vs veh, FOXP1 / RFU, CARD8 / Fold change vs veh, CARD8 / RFU, STRN3 / Fold change vs veh, STRN3 / RFU, ADK / Fold change vs veh, ADK / RFU, RASSF2 / Fold change vs veh, RASSF2 / RFU, WIPF1 / Fold change vs veh, WIPF1 / RFU, LARP1B / Fold change vs veh, LARP1B / RFU, RASA1 / Fold change vs veh, RASA1 / RFU, RB1 / Fold change vs veh, RB1 / RFU, PPFIA1 / Fold change vs veh, PPFIA1 / RFU, MAT2A / Fold change vs veh, MAT2A / RFU, CCT5 / Fold change vs veh, CCT5 / RFU, WDR92 / Fold change vs veh, WDR92 / RFU, CUX1 / Fold change vs veh, CUX1 / RFU, TTC7A / Fold change vs veh, TTC7A / RFU, TMEM135 / Fold change vs veh, TMEM135 / RFU, DEPTOR / Fold change vs veh, DEPTOR / RFU, CPM / Fold change vs veh, CPM / RFU, DNAJB6 / Fold change vs veh, DNAJB6 / RFU, CACNA2D3 / Fold change vs veh, CACNA2D3 / RFU, DTX4 / Fold change vs veh, DTX4 / RFU, TFCP2 / Fold change vs veh, TFCP2 / RFU, GMCL1 /// GMCL1P1 / Fold change vs veh, GMCL1 /// GMCL1P1 / RFU, AEBP2 / Fold change vs veh, AEBP2 / RFU, SNHG1 /// SNORD22 /// SNORD25 /// SNORD26 /// SNORD27 /// SNORD28 /// SNORD29 /// SNORD31 / Fold change vs veh, SNHG1 /// SNORD22 /// SNORD25 /// SNORD26 /// SNORD27 /// SNORD28 /// SNORD29 /// SNORD31 / Fold change (Aza/veh), C12orf56 (ProbeSet 11735607_a_at) / Fold change (ACY-1035/veh), C12orf56 (ProbeSet 11735607_a_at) / Fold change (Aza/veh), FGFR1OP (ProbeSet 11751329_s_at) / Fold change (ACY-1035/veh), FGFR1OP (ProbeSet 11751329_s_at) / Fold change (Aza/veh), VPS36 (ProbeSet 11739960_a_at) / Fold change (ACY-1035/veh), VPS36 (ProbeSet 11739960_a_at) / RFU SYPL1 (11715823_x_at) / Fold change /veh SYPL1 (11715823_x_at) / RFU IGFBP7 (11715501_s_at) / Fold change /veh IGFBP7 (11715501_s_at) / RFU REEP3 (11722064_at) / Fold change /veh REEP3 (11722064_at) / RFU IGLL1 (11728026_x_at) / Fold change /veh IGLL1 (11728026_x_at): dose or concentration left out as unconfirmed
Conditions: MV-4-11 cells, 48 hours

Compound: Nc1ncn([C@@H]2O[C@H](CO)[C@@H](O)[C@H]2O)c(=O)n1 [azacitidine]
- RFU TMCC2 (11721928_a_at): 12.72 RFU
